# Source: PMC8445441, “Elucidating the mechanism by which synthetic helper peptides sensitize Pseudomonas aeruginosa to multiple antibiotics” (PLoS Pathogens, 2021)
# Read-outs that look alike come from different tables or passages of the source.
# Tests used:
# P. aeruginosa AUMC-Pa-3 = experiment: microbe, parasite or virus in culture; conditions: strain AUMC-Pa-3
# Outline: (§1)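 Growth inhibition was scored by eye after an 18 h, 37 °C incubation of drug-bacteria mixtures in Mueller-Hinton broth. Inoculum suspension held approximately 1 × 10^6 CFU/mL before 1:1 mixing.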
# P. aeruginosa AUMC-Pa-4 = experiment: microbe, parasite or virus in culture; conditions: strain AUMC-Pa-4
# Outline: as §1
# P. aeruginosa AUMC-Pa-5 = experiment: microbe, parasite or virus in culture; conditions: strain AUMC-Pa-5
# Outline: as §1
# P. aeruginosa AUMC-Pa-6 = experiment: microbe, parasite or virus in culture; conditions: strain AUMC-Pa-6
# Outline: as §1
# P. aeruginosa PAO1 = experiment: microbe, parasite or virus in culture; conditions: PAO1
# Outline: as §1
# P. aeruginosa ATCC27853 = experiment: microbe, parasite or virus in culture; parameters: MICa: MIC of the antibiotic / MICac: MIC of the antibiotic in the combination: unit not given beside the values; conditions: strain ATCC27853
# Outline: as §1
# P. aeruginosa NR-31040 = experiment: microbe, parasite or virus in culture; parameters: MICa: MIC of the antibiotic / MICac: MIC of the antibiotic in the combination: unit not given beside the values
# Outline: as §1
# P. aeruginosa NR-31041 = experiment: microbe, parasite or virus in culture; parameters: MICa: MIC of the antibiotic / MICac: MIC of the antibiotic in the combination: unit not given beside the values; conditions: strain NR-31041
# Outline: as §1
# P. aeruginosa PA14 = experiment: microbe, parasite or virus in culture; parameters: MICa: MIC of the antibiotic / MICac: MIC of the antibiotic in the combination: unit not given beside the values; conditions: strain PA14
# Outline: as §1
# P. aeruginosa PAK = experiment: microbe, parasite or virus in culture; parameters: MICa: MIC of the antibiotic / MICac: MIC of the antibiotic in the combination: unit not given beside the values; conditions: strain PAK
# Outline: as §1
# P. aeruginosa HM-214 = conditions: strain HM-214; antibiotic + D-11 (MICb/MICbc 128/4)
# Outline: as §1
# P. aeruginosa AUMC-Pa-1 = conditions: strain AUMC-Pa-1; antibiotic + D-11 (MICb/MICbc 128/4)
# Outline: as §1
# P. aeruginosa AUMC-Pa-2 = conditions: strain AUMC-Pa-2; antibiotic + D-11 (MICb/MICbc 64/4)
# Outline: as §1
# [1] = system: clinical P. aeruginosa isolates; experiment: microbe, parasite or virus in culture; conditions: Pseudomonas aeruginosa, 18 h, antibiotic alone
# Outline: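 Broth microdilution per CLSI in MHB, two-fold drug dilutions mixed with an equal volume of bacteria at about 1 × 10^6 CFU/mL. After 18 h at 37 °C, MIC taken as the lowest concentration with no visible growth; run in triplicate.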
# [2] = antibiotic + D-11 (MICb/MICbc 128/4)
# [3] = antibiotic alone, unit not given
# [4] = with D-11 at MICbc 4, unit not given
# [5] = antibiotic + D-11 (MICb/MICbc 64/4)
smiles,measurement,setting,value
CN(C)[C@@H]1C(O)=C(C(N)=O)C(=O)[C@@]2(O)C(O)=C3C(=O)c4c(O)c(NC(=O)CN5CCCC5)cc(F)c4C[C@H]3C[C@@H]12 [Eravacycline],FICI,P. aeruginosa AUMC-Pa-3; [2],0.156
same,MICa: MIC of the antibiotic,P. aeruginosa AUMC-Pa-3; [3],8
same,MICac: MIC of the antibiotic in the combination,P. aeruginosa AUMC-Pa-3; [4],1
same,FICI,P. aeruginosa AUMC-Pa-4; [2],0.156
same,MICa: MIC of the antibiotic,P. aeruginosa AUMC-Pa-4; [3],16
same,MICac: MIC of the antibiotic in the combination,P. aeruginosa AUMC-Pa-4; [4],2
same,FICI,P. aeruginosa AUMC-Pa-5; [5],1.063
same,MICa: MIC of the antibiotic,P. aeruginosa AUMC-Pa-5; [3],8/8
same,MICac: MIC of the antibiotic in the combination,P. aeruginosa AUMC-Pa-5; [4],8/8
same,FICI,P. aeruginosa AUMC-Pa-6; [5],0.313
same,MICa: MIC of the antibiotic,P. aeruginosa AUMC-Pa-6; [3],8
same,MICac: MIC of the antibiotic in the combination,P. aeruginosa AUMC-Pa-6; [4],2
same,MIC,"P. aeruginosa PAO1; Pseudomonas aeruginosa, PAO1, 18 h, read-out: MICa: the MIC of antibiotics, S3 Table, antibiotic alone",4 µM
same,FICI,"P. aeruginosa PAO1; S3 Table, antibiotic + 2 μM D-11",0.094
same,MICac: the MIC for the antibiotic in the combination,"P. aeruginosa PAO1; S3 Table, with 2 μM D-11",0.125 µM
same,MICac: the MIC for the antibiotic in the combination,"P. aeruginosa PAO1; S3 Table, with 4 μM D-11",0.0625 µM
same,FICI,P. aeruginosa ATCC27853; antibiotic + D-11 (MICb/MICbc 32/4),0.250
same,MICa: MIC of the antibiotic,P. aeruginosa ATCC27853; [3],8
same,MICac: MIC of the antibiotic in the combination,P. aeruginosa ATCC27853; [4],1
same,MIC,"P. aeruginosa NR-31040; Pseudomonas aeruginosa, NR31040, 18 h, read-out: MICa: MIC of the antibiotic",8 µM
same,FICI,"P. aeruginosa NR-31040; strain NR-31040, antibiotic + D-11 (MICb/MICbc 128/4)",0.094
same,MICac: MIC of the antibiotic in the combination,"P. aeruginosa NR-31040; strain NR-31040, with D-11 at MICbc 4, unit not given",0.5
same,FICI,P. aeruginosa NR-31041; [5],0.188
same,MICa: MIC of the antibiotic,P. aeruginosa NR-31041; [3],8
same,MICac: MIC of the antibiotic in the combination,P. aeruginosa NR-31041; [4],1
same,FICI,P. aeruginosa PA14; [2],0.156
same,MICa: MIC of the antibiotic,P. aeruginosa PA14; [3],8
same,MICac: MIC of the antibiotic in the combination,P. aeruginosa PA14; [4],1
same,FICI,P. aeruginosa PAK; [5],0.188
same,MICa: MIC of the antibiotic,P. aeruginosa PAK; [3],8
same,MICac: MIC of the antibiotic in the combination,P. aeruginosa PAK; [4],1
same,FICI,P. aeruginosa HM-214,0.281
same,FICI,P. aeruginosa AUMC-Pa-1,0.156
same,FICI,P. aeruginosa AUMC-Pa-2,0.313
same,MIC,"[1]; read-out: Antibiotic sensibility (MIC) of clinical P. aeruginosa isolate AUMC-Pa-1, strain AUMC-Pa-1",16 µM
same,MIC,"[1]; read-out: Antibiotic sensibility (MIC) of clinical P. aeruginosa isolate AUMC-Pa-2, strain AUMC-Pa-2",8 µM
same,MIC,"[1]; read-out: Antibiotic sensibility (MIC) of clinical P. aeruginosa isolate AUMC-Pa-3, strain AUMC-Pa-3",8 µM
same,MIC,"[1]; read-out: Antibiotic sensibility (MIC) of clinical P. aeruginosa isolate AUMC-Pa-4, strain AUMC-Pa-4",16 µM
same,MIC,"[1]; read-out: Antibiotic sensibility (MIC) of clinical P. aeruginosa isolate AUMC-Pa-5, strain AUMC-Pa-5",8 µM
same,MIC,"[1]; read-out: Antibiotic sensibility (MIC) of clinical P. aeruginosa isolate AUMC-Pa-6, strain AUMC-Pa-6",8 µM
same,MIC,"[1]; read-out: Antibiotic sensibility (MIC) of clinical P. aeruginosa isolate HM-214, strain HM-214",8 µM
same,MIC,"[1]; read-out: Antibiotic sensibility (MIC) of clinical P. aeruginosa isolate NR-31040, strain NR-31040",8 µM
same,MIC,"[1]; read-out: Antibiotic sensibility (MIC) of clinical P. aeruginosa isolate NR-31041, strain NR-31041",8 µM
